Assay results reported in patent US7135467B2, “HIV integrase inhibitors” (priority 2003, dated 2006).

Target: T1, HIV-integrase (recombinant integrase) (Human immunodeficiency virus type 1 group M subtype B, UniProt P12497)
T1 construct: Recombinant integrase (0.26 ng) was incubated with the beads
Assay: HIV-Integrase Inhibition Activity (SPA bead strand-transfer assay)
Format: biochemical
Details: recombinant integrase on biotin labeled substrate DNA/SPA beads, P33 labeled target DNA; read-out: Activity (IC50 against HIV-integrase)
Method: To evaluate in-vitro activity against HIV-integrase, 5 pmole of biotin labeled substrate DNA was bound to 100 μg of Streptavidin coated PVT SPA beads (Amersham Pharmacia Biotech). Recombinant integrase (0.26 ng) was incubated with the beads for 90 min at 37° C. Unbound enzyme was removed by washing the complex followed by addition of inhibitors and 0.1 fmol of P33 labeled target DNA. The reaction was stopped by adding EDTA to a final concentration of 10 mM. Samples were counted in TopCountNXT (Packard) and the CPM was used as a measure of integration. The reaction condition was as described in A. Engelman and R. Craigie, J. Virol. 69, 5908–5911 (1995). The sequences of substrate and target DNA were described in Nucleic Acid Research 22, 1121–1122 (1994). Activity equal to A refers to a compound having IC50=0.003 to 0.10 μM while B and C denote compounds the following IC50=0.1 to 1.0 μM and IC50≧1.0 μM respectively.

SMILES	IC50
Cc1cccc(CNC(=O)c2nc(N3CCCCS3(=O)=O)n(C)c(=O)c2O)c1 [Compound 9, 1,6-dihydro-5-hydroxy-1-methyl-N-[(3-methylphenyl)methyl]-6-oxo-2-(tetrahydro-1,1-dioxido-2H-1,2-thiazin-2-yl)-4-pyrimidinecarboxamide]	3 to 100 nM
Cn1c(N2CCC2)nc(C(=O)NCc2ccc(F)cc2)c(O)c1=O [Compound 92, 2-(1-azetidinyl)-N-[(4-fluorophenyl)methyl]-1,6-dihydro-5-hydroxy-1-methyl-6-oxo-4-pyrimidinecarboxamide]	3 to 100 nM
Cn1c(N2CCCCC2CO)nc(C(=O)NCc2ccc(F)cc2)c(O)c1=O (centres unmarked) [Compound 96, 4-pyrimidineN-[(4-fluorophenyl)methyl]-1,6-dihydro-5-hydroxy-2-[2-(hydroxymethyl)-1-piperidinyl]-1-methyl-6-oxo-carboxamide]	100 to 1000 nM
Cc1ccc(CNC(=O)c2nc(N3CCCCS3(=O)=O)n(C)c(=O)c2O)cc1F [Compound 14, N-[(3-fluoro-4-methylphenyl)methyl]-1,6-dihydro-5-hydroxy-1-methyl-6-oxo-2-(tetrahydro-1,1-dioxido-2H-1,2-thiazin-2-yl)-4-pyrimidinecarboxamide]	3 to 100 nM
Cc1cc(CNC(=O)c2nc(N3CCCCC3CCO)n(C)c(=O)c2O)ccc1F (centres unmarked) [Compound 99, N-[(4-fluoro-3-methylphenyl)methyl]-1,6-dihydro-5-hydroxy-2-[2-(2-hydroxyethyl)-1-piperidinyl]-1-methyl-6-oxo-4-pyrimidinecarboxamide]	3 to 100 nM
Cn1c(-n2ncccc2=O)nc(C(=O)NCc2ccc(F)cc2)c(O)c1=O [Compound 100, N-[(4-fluorophenyl)methyl]-1,6-dihydro-5-hydroxy-1-methyl-6-oxo-2-(6-oxo-1(6H)-pyridazinyl)-4-pyrimidinecarboxamide]	100 to 1000 nM
Cc1cc(CNC(=O)c2nc(N3CCCCS3(=O)=O)n(C)c(=O)c2O)ccc1F [Compound 13, N-[(4-fluoro-3-methylphenyl)methyl]-1,6-dihydro-5-hydroxy-1-methyl-6-oxo-2-(tetrahydro-1,1-dioxido-2H-1,2-thiazin-2-yl)-4-pyrimidinecarboxamide]	3 to 100 nM
Cn1c(N2CCC[C@H]2C(N)=O)nc(C(=O)NCc2ccc(F)cc2)c(O)c1=O [Compound 95, 2-[(2S)-2-(aminocarbonyl)-1-pyrrolidinyl]-N-[(4-fluorophenyl)methyl]-1,6-dihydro-5-hydroxy-1-methyl-6-oxo-4-pyrimidinecarboxamide]	3 to 100 nM
Cn1c(N2CCCCS2(=O)=O)nc(C(=O)NCCCc2ccc(F)cc2)c(O)c1=O [Compound 6, N-[3-(4-fluorophenyl)propyl]-1,6-dihydro-5-hydroxy-1-methyl-6-oxo-2-(tetrahydro-1,1-dioxido-2H-1,2-thiazin-2-yl)-4-pyrimidinecarboxamide]	3 to 100 nM
Cc1ncnn1-c1nc(C(=O)NCc2ccc(Cl)c(Cl)c2)c(O)c(=O)n1C [Compound 62, N-[(3,4-dichlorophenyl)methyl]-1,6-dihydro-5-hydroxy-1-methyl-2-(5-methyl-1H-1,2,4-triazol-1-yl)-6-oxo-4-pyrimidinecarboxamide]	3 to 100 nM
Cn1c(N2CCCCS2(=O)=O)nc(C(=O)NCc2ccccc2)c(O)c1=O [Compound 35, 1,6-dihydro-5-hydroxy-1-methyl-6-oxo-N-(phenylmethyl)-2-(tetrahydro-1,1-dioxido-2H-1,2-thiazin-2-yl)-4-pyrimidinecarboxamide]	100 to 1000 nM
Cn1c(N2CCCCS2(=O)=O)nc(C(=O)NCc2cc(C(F)(F)F)cc(C(F)(F)F)c2)c(O)c1=O [Compound 44, N-[[3,5-bis(trifluoromethyl)phenyl]methyl]-1,6-dihydro-5-hydroxy-1-methyl-6-oxo-2-(tetrahydro-1,1-dioxido-2H-1,2-thiazin-2-yl)-4-pyrimidinecarboxamide]	≥ 1000 nM
Cn1c(N2CCCCS2(=O)=O)nc(C(=O)NCc2cccc(C(F)(F)F)c2)c(O)c1=O [Compound 29, 1,6-dihydro-5-hydroxy-1-methyl-6-oxo-2-(tetrahydro-1,1-dioxido-2H-1,2-thiazin-2-yl)-N-[[3-(trifluoromethyl)phenyl]methyl]-4-pyrimidinecarboxamide]	3 to 100 nM
Cn1c(N)nc(C(=O)NCc2ccc(F)cc2)c(O)c1=O [Compound 63, 2-amino-5-hydroxy-1-methyl-6-oxo-1,6-dihydro-pyrimidine-4-carboxylic acid 4-fluorobenzylamine]	3 to 100 nM
Cn1c(N2CCCCS2(=O)=O)nc(C(=O)NCc2ccc(F)c(Cl)c2)c(O)c1=O [Compound 18, N-[(3-chloro-4-fluorophenyl)methyl]-1,6-dihydro-5-hydroxy-1-methyl-6-oxo-2-(tetrahydro-1,1-dioxido-2H-1,2-thiazin-2-yl)-4-pyrimidinecarboxamide]	3 to 100 nM
Cc1cc(CNC(=O)c2nc(N3CCN(C(=O)N4CCNC4=O)CC3)n(C)c(=O)c2O)ccc1F [Compound 86, N-[(4-fluoro-3-methylphenyl)methyl]-1,6-dihydro-5-hydroxy-1-methyl-6-oxo-2-[4-[(2-oxo-1-imidazolidinyl)carbonyl]-1-piperazinyl]-4-pyrimidinecarboxamide]	3 to 100 nM
Cn1c(N2CCCCS2(=O)=O)nc(C(=O)NCc2cccc(Cl)c2)c(O)c1=O [Compound 5, N-[(3-chlorophenyl)methyl]-1,6-dihydro-5-hydroxy-1-methyl-6-oxo-2-(tetrahydro-1,1-dioxido-2H-1,2-thiazin-2-yl)-4-pyrimidinecarboxamide]	3 to 100 nM
Cn1c(N2CCCC2)nc(C(=O)NCc2ccc(F)cc2)c(O)c1=O [Compound 91, N-[(4-fluorophenyl)methyl]-1,6-dihydro-5-hydroxy-1-methyl-6-oxo-2-(1-pyrrolidinyl)-4-pyrimidinecarboxamide]	3 to 100 nM
Cc1cc(CNC(=O)c2nc(N3CCN(c4ccccc4)CC3)n(C)c(=O)c2O)ccc1F [Compound 80, N-[(4-fluoro-3-methylphenyl)methyl]-1,6-dihydro-5-hydroxy-1-methyl-6-oxo-2-(4-phenyl-1-piperazinyl)-4-pyrimidinecarboxamide]	3 to 100 nM
Cn1c(N2CCCCS2(=O)=O)nc(C(=O)NCCc2cccc(F)c2)c(O)c1=O [Compound 21, N-[2-(3-fluorophenyl)ethyl]-1,6-dihydro-5-hydroxy-1-methyl-6-oxo-2-(tetrahydro-1,1-dioxido-2H-1,2-thiazin-2-yl)-4-pyrimidinecarboxamide]	≥ 1000 nM
Cn1c(N2CCCCS2(=O)=O)nc(C(=O)NCCCc2ccc(Cl)c(Cl)c2)c(O)c1=O [Compound 7, N-[3-(3,4-dichlorophenyl)propyl]-1,6-dihydro-5-hydroxy-1-methyl-6-oxo-2-(tetrahydro-1,1-dioxido-2H-1,2-thiazin-2-yl)-4-pyrimidinecarboxamide]	≥ 1000 nM
COc1cc(CNC(=O)c2nc(N3CCCCS3(=O)=O)n(C)c(=O)c2O)cc(OC)c1OC [Compound 41, 1,6-dihydro-5-hydroxy-1-methyl-6-oxo-2-(tetrahydro-1,1-dioxido-2H-1,2-thiazin-2-yl)-N-[(3,4,5-trimethoxyphenyl)methyl]-4-pyrimidinecarboxamide]	≥ 1000 nM
Cn1c(N2CCCCS2(=O)=O)nc(C(=O)NCCc2ccccc2)c(O)c1=O [Compound 31, 1,6-dihydro-5-hydroxy-1-methyl-6-oxo-N-(2-phenylethyl)-2-(tetrahydro-1,1-dioxido-2H-1,2-thiazin-2-yl)-4-pyrimidinecarboxamide]	≥ 1000 nM
